Measurements taken from paper PMC12030033, “Design and Synthesis of Bis-Chalcones as Curcumin Simplified Analogs and Assessment of Their Antiproliferative Activities Against Human Lung Cancer Cells and Trypanosoma cruzi Amastigotes” (Pharmaceuticals, 2025).
Where two headings read alike, the source gives them in different places.

How the values were obtained:
[1] = tested on: H460 cells; assay: Antiproliferative activity (MTT) against H460 tumor cell line; assay type: cell-based, human; conditions: for IC50: read-out: H460 IC50; for Fold increase in potency compared with analog 7, H460: IC50 ratio vs 7; for Selective Index SI H460: PBMC LD50 vs H460 IC50
Protocol: (§1) Cells were treated with increasing concentrations of the hybrids in triplicates, pre-diluted in DMEM + 2% FBS, and incubated for 120 h. The toxic effect of the molecules was also evaluated on human lung cancer cell lines (A549 and H460), as well as on PBMC. […] In all experiments, untreated controls, vehicle (0.2% v/v DMSO), and blanks (no added cells) were included. […] Then, 20 µL of 3.0 mM MTT saline was added and incubated for another 1.5 h. The supernatant was removed, and the MTT formazan crystals were dissolved by adding 120 µL/well of DMSO. After incubation for 1.5 h to dissolve the MTT crystals away from light and at 37 °C, the absorbance was measured at λ = 570 nm using a plate reader.

[2] = tested on: T. cruzi amastigotes (Tulahuen C2C4-LacZ); assay: Trypanocidal activity against intracellular amastigotes (CPRG, beta-galactosidase); assay type: cell-based, Trypanosoma cruzi; conditions: for Selective Index: LLC-MK2 IC50 vs T. cruzi amastigote IC50; for IC50: Trypanosoma cruzi, TULAHUEN, 120 h, in LLC-MK2 host cells
Protocol: The antiparasitic activity assays used the Tulahuen C2C4-LacZ strain of the Trypanosoma cruzi parasite, being evaluated in the amastigote forms. […] Trypomastigote forms were collected from the culture supernatant between the 5th and 10th day after infection and separated from non-adherent cells by differential centrifugation. Epimastigote evolutionary form parasites were cultivated in LIT medium (Liver Infusion Tryptose), supplemented with hemin (25 mg/L) + 10% FBS, and incubated at 28 °C, performing successive passages every 6–7 days.
Non-internalized parasites were removed by three successive washes with PBS, followed by treatment with increasing concentrations of the hybrids (0.64–100 µM) in triplicates, pre-diluted in DMEM + 2% FBS. Untreated vehicle (0.2% v/v DMSO) and blank (no added parasites) controls were included in the experiment. Increasing concentrations of Benznidazole were used as the positive control. After incubation for 5 days (120 h), 30 µL of 0.5 mM chlorophenol red substrate β-galactopyranoside (CPRG) in PBS was added with 0.9% v/v of Igepal CA-630.

[3] = Cytotoxicity (MTT) on LLC-MK2 host cells; assay type: cell-based; conditions: rhesus monkey
Excerpt: Mammalian cells were used to evaluate the cytotoxicity of the tested compounds. […] Cells were dissociated from the monolayer by treatment with a solution containing 0.25% w/v trypsin and 0.04% EDTA.

[4] = tested on: A549 cells; assay: Antiproliferative activity (MTT) against A549 tumor cell line; assay type: cell-based, human; conditions: for IC50: read-out: A549 IC50; for Selective Index SI A549: PBMC LD50 vs A549 IC50
Protocol: as §1

[5] = Stability in PBS by HPLC-DAD; assay type: physicochemical; conditions: PBS pH 7.4, 37 °C; for Chemical stability in PBS: 24 h incubation
Protocol: The analytical conditions were as follows: Column Restek, Allure Organic Acid C18, 150 mm × 4.6 mm × 5 µm (Bellefonte, PA, USA); mobile phase, 40% water with 0.1% formic acid, 60% acetonitrile with 0.1% formic acid, 1.0 mL/min, isocratic elution; injection volume, 5 µL; detectors, PDA (200–800 nm). […] After incubation, 100 µL of reaction mixtures were added to 900 µL of HPLC mobile phase and injected.

[6] = tested on: peripheral blood mononuclear cells (PBMC); conditions: human, 72 h
Protocol: as §1

[7] = tested on: T. cruzi epimastigotes (Y strain); set-up: method as in PMID 27658305; conditions: read-out: IC50 against epimastigotes (Y strain); cited from earlier work
[8] = tested on: A549 cells; assay: Cell cycle analysis by PI flow cytometry; assay type: cell-based, human; conditions: A549, 72 h treatment at IC50; for Cells in G2-M phase: control approximately 20%
Protocol: The cell cycle phase was determined using a PI solution, according to a method described elsewhere. […] Cell cycle determination was performed on a FACScalibur flow cytometer (BD Biosciences, San Diego, CA, USA). Post-analysis of the cell cycle assay was performed using Summit software (version 4.3, Dako Colorado, Fort Collins, CO, USA).

[9] = tested on: T. cruzi (Y strain) amastigotes; set-up: method as in PMID 27658305; conditions: cited from earlier work
[10] = tested on: peripheral blood mononuclear cells (PBMC); assay: Cytotoxicity (MTT) on peripheral blood mononuclear cells
Protocol: as §1

[11] = tested on: A549 cells; assay: Cell death analysis by Annexin V/PI flow cytometry; assay type: cell-based, human; conditions: A549, 48 h at IC50; control 2.38%
Protocol: Cell death analysis was performed by using an Annexin V/PI double staining kit (PharMingen, San Diego, CA, USA) as previously described. For the assay, the cells were plated at a density of 1 × 10^6 cells/well in six-well plates, 2 mL/well. […] After incubating for 15 min at room temperature in the dark, 400 µL of binding buffer was added. The two-color flow cytometry analysis was performed on a FACSCalibur device (Becton Dickinson, Franklin Lakes, NJ, USA). Post-analysis was performed in Summit software (version 4.3, Dako Colorado, Fort Collins, CO, USA).

[12] = Homo sapiens, NCI-H460, 72 h, MTT

SMILES | IC50 [1, 12] [µM] | Selective Index [2] | IC50 [2] [µM] | IC50 at 120 h [3] [µM] | IC50 ([4]; Homo sapiens, A549, 72 h, MTT) [µM] | Selective Index SI A549 [4] | PBMC LD50 [6] [µM] | Selective Index SI H460 [1] | other results
COc1cc(/C=C2\COC/C(=C\c3ccc(O)c(OC)c3)C2=O)ccc1O [Compound 8, (3E,5E)-3,5-Bis(4-hydroxy-3-methoxybenzylidene)tetrahydro-4H-pyran-4-one] | 1.46 ± 0.28 | 1.60 | 12.8 ± 5.17 | 20.6 ± 4.65 | 8.1 ± 1.27 | 16.27 | 131.8 ± 14.52 | – | Fold increase in potency compared with analog 7, H460 [1]: ~30 fold; Fold increase in potency compared with parent derivative 7, A549 ([4]; IC50 ratio vs 7): ~10 fold; Chemical stability in PBS [5]: remained untouched
COc1cc(/C=C2\CSC/C(=C\c3ccc(O)c(OC)c3)C2=O)ccc1O [Compound 10, (3Z,5Z)-3,5-Bis(4-hydroxy-3-methoxybenzylidene)dihydro-2H-thiopyran-4(3H)-one] | 12.8 ± 3.94 | 2.20 | 5.87 ± 2.89 | 13 ± 2.36 | 37 ± 8.28 | 5.04 | 186.4 ± 35.15 | 14.56 | –
COc1cc(/C=C2\CC/C(=C\c3ccc(O)c(OC)c3)C2=O)ccc1O [Compound 6, 2,5-Bis((E)-4-hydroxy-3-methoxybenzylidene)cyclopentan-1-one] | 36.1 ± 7.14 | – | 8.35 ± 2.35 | < 6.4 | 71.3 ± 1.53 | 1.97 | 141.1 ± 18.53 | 3.90 | –
COc1cc(/C=C2\CN(C)C/C(=C\c3ccc(O)c(OC)c3)C2=O)ccc1O [Compound 9, (3E,5E)-3,5-Bis(4-hydroxy-3-methoxybenzylidene)-1-methylpiperidin-4-one] | 9.89 ± 3.03 | 2.95 | 9.6 ± 1.61 | 28.4 ± 3.8 | 61.1 ± 6.2 | 1.19 | 73.25 ± 5.87 | 7.40 | Fold increase in potency compared with analog 7, H460 [1]: 4.3 fold
COc1cc(/C=C2\C[S+]([O-])C/C(=C\c3ccc(O)c(OC)c3)C2=O)ccc1O (stereo not shown) [Compound 11, (3Z,5Z)-3,5-Bis(4-hydroxy-3-methoxybenzylidene)dihydro-2H-thiopyran-4(3H)-one 1-oxide] | 1.02 ± 0.29 | 1.70 | 16.7 ± 4.67 | 28.5 ± 5.17 | 7.74 ± 1.65 | – | >200 | > 196.07 | –
COc1cc(/C=C/C(=O)c2ccc(O)c(OC)c2)ccc1O [Compound 5, (E)-1,3-Bis(4-hydroxy-3-methoxyphenyl)prop-2-en-1-one] | 1.74 ± 0.28 | 0.55 | 15.6 ± 4.08 | – | 58 ± 6.75 | 2.05 | 119.1 ± 16.35 | 68.44 | IC50 at 120 h ([3]; 120 h, MTT, read-out: LLC-MK2 (Host Cells) 120 h IC50): 8.72 ± 2.42 µM
COc1cc(/C=C/C(=O)CC(=O)/C=C/c2ccc(O)c(OC)c2)ccc1O [Compound 1, (1E,6E)-1,7-Bis(4-hydroxy-3-methoxyphenyl)hepta-1,6-dien-3,5-dione, reference compound] | – | – | 17.8 ± 6.88 | 25.7 ± 6.05 | – | – | 146.5 ± 12.08 | – | IC50 ([1]; Homo sapiens, NCI-H460, 72 h): 37.9 ± 8.81 µM; IC50 [7]: 10.1 µM; Cells in G2-M phase [8]: 80%; IC50 ([4]; Homo sapiens, A549, 72 h): 56.5 ± 3.75 µM; Amastigote release from infected mouse macrophages [9]: inhibited amastigote release; Fraction decomposed in PBS [5]: approximately 70%
O=C(/C=C/c1ccc(O)cc1)CC(=O)/C=C/c1ccc(O)cc1 [Compound 3, (1E,6E)-1,7-Bis(4-hydroxyphenyl)hepta-1,6-diene-3,5-dione, reference compound] | 27.1 ± 4.35 | 1.11 | 17.6 ± 0.26 | 19.7 ± 0.87 | 46.5 ± 3.45 | 2.88 | 134.1 ± 13.30 | – | –
N.N.[Cl][Pt][Cl] [Cisplatin, reference compound] | – | – | – | – | – | – | – | – | IC50 ([1]; 72 h, MTT): 2.96 ± 0.44 µM; IC50 ([4]; 72 h, MTT): 6.05 ± 0.58 µM
COc1cc(/C=C/C(=O)/C=C/c2ccc(O)c(OC)c2)ccc1O [Compound 4, (1E,4E)-1,5-Bis(4-hydroxy-3-methoxyphenyl)penta-1,4-dien-3-one] | – | – | 3.92 ± 0.33 | < 6.4 | – | – | – | > 19.60 | PBMC LD50 ([10]; 72 h, MTT): >200 µM; Toxic effects against peripheral blood mononuclear cells ([10]; higher concentration tested): did not present toxic effects; IC50 ([1]; Homo sapiens, NCI-H460, 72 h): 10.2 ± 3.76 µM; IC50 ([4]; Homo sapiens, A549, 72 h): 18.1 ± 4.72 µM; Chemical stability in PBS [5]: remained untouched
O=C(Cn1ccnc1[N+](=O)[O-])NCc1ccccc1 [Benznidazole, reference compound] | – | > 133 | 1.5 ± 0.33 | > 200 | – | – | – | – | –
COc1cc(/C=C2\CCC/C(=C\c3ccc(O)c(OC)c3)C2=O)ccc1O [Compound 7, 2,6-Bis((E)-4-hydroxy-3-methoxybenzylidene)cyclohexan-1-one] | 42.6 ± 3.94 | – | 4.91 ± 0.4 | < 6.4 | 76.2 ± 9.49 | – | >200 | – | –
COc1cc(/C=C2\CS(=O)(=O)C/C(=C\c3ccc(O)c(OC)c3)C2=O)ccc1O [Compound 12, (3Z,5Z)-3,5-Bis(4-hydroxy-3-methoxybenzylidene)dihydro-2H-thiopyran-4(3H)-one 1,1-dioxide] | 0.27 ± 0.2 | 1.56 | 7.33 ± 0.43 | 11.5 ± 3.71 | 5.89 ± 2.81 | 29.37 | 173.0 ± 37.4 | 640.74 | Cells in sub-G0 phase [8]: 30%; Cells in G2-M phase [8]: 60%; Double-positive cells for annexin and PI (late apoptosis) [11]: 14.98%
